Results taken from US11845770B2, “Ascaroside derivatives and methods of use” (California Institute of Technology, priority 2019, dated 2023).

What was measured:
Assay type in all cases: in vitro ADME
[1] = Stability in plasma (rat); conditions: after 120 minutes, 37° C.
Description: (§1) The pH of plasma was adjusted to 7.4±0.1 if required. 1 mM intermediate solution was prepared by diluting 10 μL of the 10 mM stock solution of 1 with 90 μL DMSO; 1 mM intermediate of positive control propantheline bromide was prepared by diluting 10 μL of the stock solution with 90 μL ultra-pure water. 100 μM dosing solution was prepared by diluting 10 μL of the 1 mM intermediate solution with 90 μL of 45% MeOH/H2O. 98 μL of blank plasma was spiked with 2 μL of the 100 μM dosing solution to achieve a final concentration of 2 μM of the compound in duplicate. Samples were incubated at 37° C. in a water bath. At each time point (0, 10, 30, 60 and 120 min), 400 μL of stop solution (200 ng/mL tolbutamide plus 200 ng/mL labetalol in 50% ACN/MeOH) was added and was mixed thoroughly to precipitate protein. Sample plates were centrifuged at 4,000 rpm for 10 min. An aliquot of supernatant (100 μL) was transferred from each well and was mixed with 200 μL ultra-pure water. The samples were shaken at 800 rpm for about 10 min before LC/MS/MS analysis.
(§2) The remaining percentage of compound 1 (test article) after incubation was calculated according to the following equation.

[2] = Stability in plasma (human); conditions: after 120 minutes, 37° C.
Description: as §1, §2

[3] = Plasma protein binding, HT-Dialysis (human); conditions: pH 7.4, dialysis 4 hours, read-out: percent unbound
Description: HT-Dialysis plate (Model HTD 96 b, Cat #1006) and the dialysis membrane (molecular weight cut off 12-14 KDa, Cat #1101) can be purchased from HT Dialysis LLC (Gales Ferry, CT).
The plasma was thawed under running cold tap water and centrifuged at 3220×g for 5 min to remove any clots. The pH value was checked and recorded. Only plasma within range of pH 7.0 to pH 8.0 was used. The dialysis membrane was pretreated according to the manufacturer's instructions. Briefly, the dialysis membrane strips were soaked in ultra-pure water at room temperature for approximately 1 hr. After that, each membrane strip that contained 2 membranes was separated and soaked in ethanol:water (20:80 v:v) for approximately 20 min. The membrane was rinsed and soaked for 20 min in ultra-pure water.
Aliquots of 50 μL loading plasma (matrix) containing compound 1 or warfarin in triplicate were transferred to the appropriate wells of a sample collection plate. The samples were matched with dialysis buffer to obtain a final volume of 100 μL with a volume ratio of plasma (matrix):dialysis buffer (1:1, v:v) in each well. […]
The % Unbound, % Bound, % Recovery and % Remaining were calculated using the following equations: % Unbound=100×F/T % Bound=100−% Unbound % Recovery=100×(F+T)/T0 • F=the compound 1 concentration on the receiver side of the membrane/Correction Factor. […]

CYP1A2 = target: T1, CYP1A2 (Homo sapiens, UniProt P05177); assay: 5 in 1 CYP inhibition assay, CYP1A2; conditions: microsomes, probe phenacetin (O-deethylation), test compound 10 μM, n=2, read-out: inhibition of cytochrome P450 isoform 1A2
T1 construct: from tissue
T1 sequence (P05177 1-516): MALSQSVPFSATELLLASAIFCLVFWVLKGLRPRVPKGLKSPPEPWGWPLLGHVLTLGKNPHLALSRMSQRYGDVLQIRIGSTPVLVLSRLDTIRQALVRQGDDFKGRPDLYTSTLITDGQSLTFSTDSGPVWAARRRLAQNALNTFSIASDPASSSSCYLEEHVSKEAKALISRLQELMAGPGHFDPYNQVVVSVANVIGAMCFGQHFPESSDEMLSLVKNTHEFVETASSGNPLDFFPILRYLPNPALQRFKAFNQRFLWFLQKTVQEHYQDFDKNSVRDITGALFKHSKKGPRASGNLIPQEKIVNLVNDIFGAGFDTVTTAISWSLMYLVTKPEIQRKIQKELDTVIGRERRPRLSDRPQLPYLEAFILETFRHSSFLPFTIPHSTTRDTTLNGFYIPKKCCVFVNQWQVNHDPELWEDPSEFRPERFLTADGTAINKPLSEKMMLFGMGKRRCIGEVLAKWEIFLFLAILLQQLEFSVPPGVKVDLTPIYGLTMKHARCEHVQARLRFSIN
Description: (§3) CYP450 dependent activities were determined using a marker substrate cocktail. For each reaction, enzyme activities in the presence and absence of test compound (10 μM) were measured in duplicate. A known inhibitor for each isoform, tested at a single concentration (3 μM, n=2), was included as positive control. Incubation mixtures containing microsomes, substrate, and standard inhibitor or test compound were warmed at 37° C. for 10 minutes. Reactions were initiated by addition of the NADPH and incubated for 10 min. [table] After incubation, ice cold acetonitrile was added to terminate the reaction. Generation of metabolites from the substrate reactions was determined by LC-MS/MS.

CYP2C9 = target: T2, CYP2C9 (Homo sapiens, UniProt P11712); assay: 5 in 1 CYP inhibition assay, CYP2C9; conditions: microsomes, probe diclofenac (4′-hydroxylation), test compound 10 μM, n=2, read-out: inhibition of cytochrome P450 isoform 2C9
T2 construct: from tissue
Description: as §3

CYP2D6 = target: T3, CYP2D6 (Homo sapiens, UniProt P10635); assay: 5 in 1 CYP inhibition assay, CYP2D6; conditions: microsomes, probe dextromethorphan (O-demethylation), test compound 10 μM, n=2, read-out: inhibition of cytochrome P450 isoform 2D6
T3 construct: from tissue
Description: as §3

T3 sequence (P10635 whole entry, canonical isoform): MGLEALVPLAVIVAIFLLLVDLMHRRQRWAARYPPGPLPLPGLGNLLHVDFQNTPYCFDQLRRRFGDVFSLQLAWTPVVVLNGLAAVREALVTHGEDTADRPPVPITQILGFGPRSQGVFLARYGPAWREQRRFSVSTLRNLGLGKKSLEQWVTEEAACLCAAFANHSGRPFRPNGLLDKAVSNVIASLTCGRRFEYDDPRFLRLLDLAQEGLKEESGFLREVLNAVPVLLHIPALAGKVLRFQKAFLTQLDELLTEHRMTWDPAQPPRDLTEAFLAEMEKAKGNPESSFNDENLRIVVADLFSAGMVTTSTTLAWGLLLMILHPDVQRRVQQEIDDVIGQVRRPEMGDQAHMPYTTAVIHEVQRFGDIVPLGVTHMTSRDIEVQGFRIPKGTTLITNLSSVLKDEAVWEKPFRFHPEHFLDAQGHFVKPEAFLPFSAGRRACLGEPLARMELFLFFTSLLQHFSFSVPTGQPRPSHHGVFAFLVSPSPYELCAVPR
T2 sequence (P11712 whole entry, canonical isoform): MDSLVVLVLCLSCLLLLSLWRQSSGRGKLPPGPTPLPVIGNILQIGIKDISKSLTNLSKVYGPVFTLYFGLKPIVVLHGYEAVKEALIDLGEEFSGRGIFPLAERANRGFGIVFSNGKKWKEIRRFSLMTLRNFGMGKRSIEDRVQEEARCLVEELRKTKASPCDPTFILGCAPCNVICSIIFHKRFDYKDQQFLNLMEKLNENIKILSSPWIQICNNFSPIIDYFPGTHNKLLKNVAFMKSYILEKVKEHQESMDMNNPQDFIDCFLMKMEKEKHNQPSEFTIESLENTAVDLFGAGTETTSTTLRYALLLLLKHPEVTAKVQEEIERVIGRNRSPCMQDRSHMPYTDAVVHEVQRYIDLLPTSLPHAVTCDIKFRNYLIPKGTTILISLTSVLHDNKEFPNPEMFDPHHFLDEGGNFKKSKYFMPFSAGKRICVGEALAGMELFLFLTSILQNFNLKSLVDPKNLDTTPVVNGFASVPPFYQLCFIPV

SMILES | remaining percentage after incubation [1] [%] | remaining percentage after incubation [2] [%] | fraction unbound at 4 h [3] | inhibition at 10 min, 10 µM (CYP1A2) [%] | inhibition at 10 min, 10 µM (CYP2C9) [%] | inhibition at 10 min, 10 µM (CYP2D6) [%]
C[C@H](CC/C=C/C(=O)O)O[C@@H]1O[C@@H](C)[C@H](O)C[C@H]1O [ascr #7, reference compound] | 99.8 | 89.8 | 0.868 | 2.3 | 0 | 4.6
C[C@H](CC/C=C/C(=O)OC(C)(C)C)O[C@@H]1O[C@@H](C)[C@H](O)C[C@H]1O [Compound 1, tert-butyl (2E,6R)-6-{[(2R,3R,5R,6S)-3,5-dihydroxy-6-methyloxan-2-yl]oxy}hept-2-enoate] | 19.2 | 86.5 | 0.329 | 10.9 | 4.3 | 10.1
